How the values were obtained:
Type in all cases: cell-based
[1] = test system: E. coli DH5α; assay: Antibacterial activity: MIC and growth curve against E. coli DH5α in 96-well plate; settings: minimal inhibitory concentration against E. coli DH5α; 96-well plate, 5×10^5 CFU/mL, 37° C., judged after 8 h
Procedure, shortened: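 MIC taken as lowest protein level with no bacterial growth, tracked by A600 every 30 min during 37 °C, 175 rpm culture. Two-fold protein series 50-12.5 μg/mL final, triplicate wells, against 5×10^5 CFU/mL of LB-washed mid-log cells.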

[2] = test system: E. coli BL21; assay: MIC against Gram-negative bacteria: E. coli BL21
Procedure, shortened: (§1)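 MIC = lowest concentration of recombinant protein showing no growth. Test proteins: purified human-derived EGF domain proteins, two-fold dilution series, three wells per concentration; inoculum 5×10^5 CFU/mL in LB; incubation 37° C with shaking at 175 rpm.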

[3] = test system: Pseudomonas aeruginosa; assay: MIC against Gram-negative bacteria: Pseudomonas aeruginosa
Procedure, shortened: as §1

[4] = test system: Klebsiella pneumonia; assay: MIC against Gram-negative bacteria: Klebsiella pneumonia
Procedure, shortened: as §1

[5] = test system: Enterobacter cloacae; assay: MIC against Gram-negative bacteria: Enterobacter cloacae
Procedure, shortened: as §1

[6] = test system: Aeromonas hydrophila; assay: MIC against Gram-negative bacteria: Aeromonas hydrophila
Procedure, shortened: as §1

[7] = test system: Citrobacter diversus; assay: MIC against Gram-negative bacteria: Citrobacter diversus
Procedure, shortened: as §1

[8] = test system: Moraxella catarrhalis; assay: MIC against Gram-negative bacteria: Moraxella catarrhalis
Procedure, shortened: as §1

[9] = test system: Proteus mirabilis; assay: MIC against Gram-negative bacteria: Proteus mirabilis
Procedure, shortened: as §1

[10] = test system: Proteus vulgaris; assay: MIC against Gram-negative bacteria: Proteus vulgaris
Procedure, shortened: as §1

[11] = test system: Serratia marcescens; assay: MIC against Gram-negative bacteria: Serratia marcescens
Procedure, shortened: as §1

[12] = E. coli BL21, 96-well plate, 5×10^5 CFU/mL, 37° C., 10 h
[13] = Pseudomonas aeruginosa, 96-well plate, 5×10^5 CFU/mL, 37° C., 10 h
[14] = Klebsiella pneumonia, 96-well plate, 5×10^5 CFU/mL, 37° C., 10 h
[15] = Enterobacter cloacae, 96-well plate, 5×10^5 CFU/mL, 37° C., 10 h
[16] = Aeromonas hydrophila, 96-well plate, 5×10^5 CFU/mL, 37° C., 10 h
[17] = Citrobacter diversus, 96-well plate, 5×10^5 CFU/mL, 37° C., 10 h
[18] = Moraxella catarrhalis, 96-well plate, 5×10^5 CFU/mL, 37° C., 10 h
[19] = Proteus mirabilis, 96-well plate, 5×10^5 CFU/mL, 37° C., 10 h
[20] = Proteus vulgaris, 96-well plate, 5×10^5 CFU/mL, 37° C., 10 h
[21] = Serratia marcescens, 96-well plate, 5×10^5 CFU/mL, 37° C., 10 h
[22] = 96-well plate, 5×10^5 CFU/mL, 37° C., 10 h

PRT3 (DGDQCESNPCLNGGSCKDDINSYECWCPFGFEGKNCE; listed as Homo sapiens)
25 µg/mL: MIC (μg/mL) E. coli BL21 [2, 12] | MIC (μg/mL) P. aeruginosa [3, 13] | MIC (μg/mL) A. hydrophila [6, 16] | MIC (μg/mL) C. diversus [7, 17] | MIC (μg/mL) P. vulgaris [10, 20]
12.5 µg/mL: MIC [1] | MIC (μg/mL) K. pneumonia [4, 14] | MIC (μg/mL) E. cloacae [5, 15] | MIC (μg/mL) M. catarrhalis [8, 18] | MIC (μg/mL) P. mirabilis [9, 19] | MIC (μg/mL) S. marcescens [11, 21]

PRT905 (DVNECDSQPCLHGGTCQDGCGSYRCTCPQGYTGPNCQ; listed as Homo sapiens)
50 µg/mL: MIC ([2]; E. coli BL21, 10 h cultivation at 37° C.) | MIC ([5]; E. cloacae, 10 h cultivation at 37° C.) | MIC ([7]; C. diversus, 10 h cultivation at 37° C.) | MIC ([10]; P. vulgaris, 10 h cultivation at 37° C.)
12.5 µg/mL: MIC ([3]; P. aeruginosa, 10 h cultivation at 37° C.) | MIC ([6]; A. hydrophila, 10 h cultivation at 37° C.) | MIC ([9]; P. mirabilis, 10 h cultivation at 37° C.) | MIC ([11]; S. marcescens, 10 h cultivation at 37° C.)
25 µg/mL: MIC [1] | MIC ([4]; K. pneumonia, 10 h cultivation at 37° C.) | MIC ([8]; M. catarrhalis, 10 h cultivation at 37° C.)

PRT479 (AAMACSHQRCHGHGRCARRDPGQMEAFLHLWPDGSLGDWKSFSCHCYWGWAGPTCQ; listed as Homo sapiens)
12.5 µg/mL: MIC against K. pneumonia [4, 22] | MIC against M. catarrhalis [8, 22]
25 µg/mL: MIC [1] | MIC against P. aeruginosa [3, 22] | MIC against E. cloacae [5, 22] | MIC against C. diversus [7, 22] | MIC against P. mirabilis [9, 22] | MIC against S. marcescens [11, 22]
50 µg/mL: MIC against E. coli BL21 [2, 22] | MIC against A. hydrophila [6, 22] | MIC against P. vulgaris [10, 22]

PRT1288 (ADGPCHGHKCVHGQCVPLDALSYSCQCQDGYSGALCN; listed as Homo sapiens)
25 µg/mL: MIC against E. coli BL21 [2, 12] | MIC against K. pneumonia [4, 14] | MIC against P. vulgaris [10, 20]
12.5 µg/mL: MIC against P. aeruginosa [3, 13] | MIC against A. hydrophila [6, 16] | MIC against C. diversus [7, 17] | MIC against P. mirabilis [9, 19] | MIC against S. marcescens [11, 21]
50 µg/mL: MIC [1] | MIC against E. cloacae [5, 15] | MIC against M. catarrhalis [8, 18]

PRT725 (VPNLCKQICSHLCLLRPGGYSCACPQGSSFIEGSTTECD; listed as Homo sapiens)
25 µg/mL: MIC [1] | MIC P. aeruginosa [3, 22] | MIC A. hydrophila [6, 22] | MIC M. catarrhalis [8, 22] | MIC S. marcescens [11, 22]
12.5 µg/mL: MIC E. coli BL21 [2, 22] | MIC E. cloacae [5, 22] | MIC P. mirabilis [9, 22]
50 µg/mL: MIC K. pneumonia [4, 22] | MIC C. diversus [7, 22] | MIC P. vulgaris [10, 22]

PRT240 (NINECEVEPCKNGGICTDLVANYSCECPGEFMGRNCQ; listed as Homo sapiens)
25 µg/mL: MIC [1] | MIC (μg/mL) P. aeruginosa ([3]; P. aeruginosa, 10 h cultivation at 37° C., 5×10^5 CFU/mL) | MIC (μg/mL) E. cloacae ([5]; E. cloacae, 10 h cultivation at 37° C., 5×10^5 CFU/mL) | MIC (μg/mL) C. diversus ([7]; C. diversus, 10 h cultivation at 37° C., 5×10^5 CFU/mL)
100 µg/mL: MIC (μg/mL) P. mirabilis ([9]; P. mirabilis, 10 h cultivation at 37° C., 5×10^5 CFU/mL) | MIC (μg/mL) P. vulgaris ([10]; P. vulgaris, 10 h cultivation at 37° C., 5×10^5 CFU/mL)
12.5 µg/mL: MIC (μg/mL) E. coli BL21 ([2]; E. coli BL21, 10 h cultivation at 37° C., 5×10^5 CFU/mL) | MIC (μg/mL) K. pneumonia ([4]; K. pneumonia, 10 h cultivation at 37° C., 5×10^5 CFU/mL) | MIC (μg/mL) A. hydrophila ([6]; A. hydrophila, 10 h cultivation at 37° C., 5×10^5 CFU/mL) | MIC (μg/mL) M. catarrhalis ([8]; M. catarrhalis, 10 h cultivation at 37° C., 5×10^5 CFU/mL) | MIC (μg/mL) S. marcescens ([11]; S. marcescens, 10 h cultivation at 37° C., 5×10^5 CFU/mL)
